Results published in publication PMC7578299, “The antiviral effects of baloxavir marboxil against influenza A virus infection in ferrets” (Influenza and Other Respiratory Viruses, 2020).

Experiment: Simulated plasma concentration of BXA (non-parametric superposition, Phoenix WinNonlin)
Parameters: species or system ferret
Settings: for terminal elimination half-life extrapolated from mean plasma concentrations between 6 and 24 hours: four ferrets
Source text: Plasma concentrations of BXA after dosing of BXM twice daily were estimated using the non‐parametric superposition function in Phoenix WinNonlin software (https://onlinehelp.certara.com/phoenix/8.2/topics/nonparasuper.htm) based on the mean plasma concentrations of BXA following single‐dose administration of BXM. Dosing type was used as “Variable.” The computation method used for interpolation and extrapolation of untransformed data was selected as logarithm (Log).

O=C1c2c(O)c(=O)ccn2N([C@@H]2c3ccccc3SCc3c2ccc(F)c3F)[C@@H]2COCCN12 [BXA, baloxavir acid]
terminal elimination half-life extrapolated from mean plasma concentrations between 6 and 24 hours (BXM 10 mg/kg): 6.57 h
terminal elimination half-life extrapolated from mean plasma concentrations between 6 and 24 hours (BXM 30 mg/kg): 4.08 h
Simulated plasma concentration (BXM single dose 10 mg/kg, 2.5 h): 48.5 ng/mL
Simulated plasma concentration (BXM single dose 10 mg/kg, 3 h): 42.6 ng/mL
Simulated plasma concentration (BXM single dose 10 mg/kg, 3.5 h): 37.5 ng/mL
Simulated plasma concentration (BXM single dose 10 mg/kg, 4 h): 33.0 ng/mL
Simulated plasma concentration (BXM single dose 10 mg/kg, 4.5 h): 29.1 ng/mL
Simulated plasma concentration (BXM single dose 10 mg/kg, 5 h): 25.7 ng/mL
Simulated plasma concentration (BXM single dose 10 mg/kg, 5.5 h): 22.7 ng/mL
Simulated plasma concentration (BXM single dose 10 mg/kg, 6 h): 20.0 ng/mL
Simulated plasma concentration (BXM single dose 10 mg/kg, 6.5 h): 19.1 ng/mL
Simulated plasma concentration (BXM single dose 10 mg/kg, 7 h): 18.3 ng/mL
Simulated plasma concentration (BXM single dose 10 mg/kg, 7.5 h): 17.5 ng/mL
Simulated plasma concentration (BXM single dose 10 mg/kg, 8 h): 16.7 ng/mL
Simulated plasma concentration (BXM single dose 10 mg/kg, 8.5 h): 15.8 ng/mL
Simulated plasma concentration (BXM single dose 10 mg/kg, 9 h): 15.0 ng/mL
Simulated plasma concentration (BXM single dose 10 mg/kg, 9.5 h): 14.2 ng/mL
Simulated plasma concentration (BXM single dose 10 mg/kg, 10 h): 13.5 ng/mL
Simulated plasma concentration (BXM single dose 10 mg/kg, 10.5 h): 12.8 ng/mL
Simulated plasma concentration (BXM single dose 10 mg/kg, 11 h): 12.1 ng/mL
Simulated plasma concentration (BXM single dose 10 mg/kg, 11.5 h): 11.5 ng/mL
Simulated plasma concentration (BXM single dose 10 mg/kg, 12 h): 10.9 ng/mL
Simulated plasma concentration (BXM single dose 10 mg/kg, 12.5 h): 10.3 ng/mL
Simulated plasma concentration (BXM single dose 10 mg/kg, 13 h): 9.80 ng/mL
Simulated plasma concentration (BXM single dose 10 mg/kg, 13.5 h): 9.29 ng/mL
Simulated plasma concentration (BXM single dose 10 mg/kg, 47.5 h): 0.254 ng/mL
Simulated plasma concentration (BXM single dose 10 mg/kg, 48 h): 0.241 ng/mL
Simulated plasma concentration (BXM single dose 30 mg/kg, 2.5 h): 316 ng/mL
Simulated plasma concentration (BXM single dose 30 mg/kg, 3 h): 292 ng/mL
Simulated plasma concentration (BXM single dose 30 mg/kg, 3.5 h): 269 ng/mL
Simulated plasma concentration (BXM single dose 30 mg/kg, 4 h): 248 ng/mL
Simulated plasma concentration (BXM single dose 30 mg/kg, 4.5 h): 235.6 ng/mL
Simulated plasma concentration (BXM single dose 30 mg/kg, 5 h): 223.8 ng/mL
Simulated plasma concentration (BXM single dose 30 mg/kg, 5.5 h): 212.6 ng/mL
Simulated plasma concentration (BXM single dose 30 mg/kg, 6 h): 202 ng/mL
Simulated plasma concentration (BXM single dose 30 mg/kg, 6.5 h): 190.3 ng/mL
Simulated plasma concentration (BXM single dose 30 mg/kg, 7 h): 179.2 ng/mL
Simulated plasma concentration (BXM single dose 30 mg/kg, 7.5 h): 168.8 ng/mL
Simulated plasma concentration (BXM single dose 30 mg/kg, 8 h): 159 ng/mL
Simulated plasma concentration (BXM single dose 30 mg/kg, 8.5 h): 146 ng/mL
Simulated plasma concentration (BXM single dose 30 mg/kg, 9 h): 134 ng/mL
Simulated plasma concentration (BXM single dose 30 mg/kg, 9.5 h): 123 ng/mL
Simulated plasma concentration (BXM single dose 30 mg/kg, 10 h): 112 ng/mL
Simulated plasma concentration (BXM single dose 30 mg/kg, 10.5 h): 103 ng/mL
Simulated plasma concentration (BXM single dose 30 mg/kg, 11 h): 94.5 ng/mL
Simulated plasma concentration (BXM single dose 30 mg/kg, 11.5 h): 86.6 ng/mL
Simulated plasma concentration (BXM single dose 30 mg/kg, 12 h): 79.4 ng/mL
Simulated plasma concentration (BXM single dose 30 mg/kg, 12.5 h): 72.8 ng/mL
Simulated plasma concentration (BXM single dose 30 mg/kg, 13 h): 66.8 ng/mL
Simulated plasma concentration (BXM single dose 30 mg/kg, 13.5 h): 61.2 ng/mL
Simulated plasma concentration (BXM single dose 30 mg/kg, 47.5 h): 0.184 ng/mL
Simulated plasma concentration (BXM single dose 30 mg/kg, 48 h): 0.169 ng/mL
Simulated plasma concentration (BXM two doses 10 mg/kg (0 and 12 h), 2.5 h): 48.5 ng/mL
Simulated plasma concentration (BXM two doses 10 mg/kg (0 and 12 h), 3 h): 42.6 ng/mL
Simulated plasma concentration (BXM two doses 10 mg/kg (0 and 12 h), 3.5 h): 37.5 ng/mL
